Data taken from PubChem BioAssay AID1996.
Converted amounts (≈) assume the structure as drawn.

Conditions: buffer; pH 7.4; 200.0 µM

Structure (SMILES)	solubility kinetic
COc1ccc(CN(C)C(=O)c2[nH]c(C)c(C(C)=O)c2C)cc1F	> 49.9 µg/mL
CC(=O)N1CC(=O)Nc2ccc(Cl)cc2C1c1ccccc1 (stereo not given)	> 47.2 µg/mL
O=C(O)CCC(=O)NN1C(=O)c2ccccc2NC1c1ccc(F)cc1 (stereo not given)	> 53.6 µg/mL
CCOC(=O)c1cnc(-c2ccccc2)nc1N1CC(C)OC(C)C1 (stereo not given)	32.1 µg/mL (≈ 94 µM)
CCN1C(C(=O)Nc2cc(C)on2)=C(O)c2ccccc2S1(=O)=O	> 52.4 µg/mL
O=C(COC(=O)c1ccccc1O)Nc1ccc2ccccc2c1	6.2 µg/mL (≈ 19.3 µM)
O=C(NC(=S)NC1CCCc2ccccc21)c1ccc(F)cc1 (stereo not given)	< 0.4 µg/mL
O=C(Nc1ccc2nccnc2c1)Nc1ccccc1Cl	1 µg/mL (≈ 3.35 µM)
CCn1c(SCc2ccc(F)cc2)nc2c(c1=O)SCC2	0.9 µg/mL (≈ 2.79 µM)
Fc1cccc(/C=N/Nc2nccnc2Cl)c1	> 37.6 µg/mL
O=C(Nc1ccccc1)OCCOc1ccc(Br)cc1	< 0.7 µg/mL
CCOC(=O)c1cc2c(ccn2C)n1CC(=O)N(C)C	> 41.6 µg/mL
Cc1cccc2nc(C(=O)Nc3cccc(C(=O)NC4CC4)c3)cn12	5.5 µg/mL (≈ 16.4 µM)
N[C@H](CSCc1ccccc1)C(=O)Nc1ccc([N+](=O)[O-])cc1	36.3 µg/mL (≈ 110 µM)
c1ccc2sc(C3CCNCC3)nc2c1	> 32.7 µg/mL
CCN(c1ccccc1)S(=O)(=O)c1ccc(OC)c(NC(=O)C2CCC2)c1	23 µg/mL (≈ 59.2 µM)
CC(NC(=O)C(=O)NCCc1c[nH]c2ccccc12)c1ccccc1 (stereo not given)	< 0.2 µg/mL
Cc1noc(C)c1CSc1ccccc1C(=O)OC(C)C(N)=O (stereo not given)	11.5 µg/mL (≈ 34.4 µM)
NC1=Nc2cccc3cccc1c23	23.2 µg/mL (≈ 138 µM)
COc1cc2c(cc1OC)CN(C(=O)CSc1ccccc1C)CC2	> 53.6 µg/mL
Cc1cccc(NC2SC(=O)NC2=O)c1 (stereo not given)	> 33.3 µg/mL
CCOC(=O)Cc1csc(NC(=O)COC(=O)/C=C/c2ccc(OC)cc2)n1	4.5 µg/mL (≈ 11.1 µM)
O=C(COC(=O)c1ccco1)NC1CCCC1	28.1 µg/mL (≈ 118 µM)
CC1=C(C(=O)OC(C)C)C(c2ccc(C)o2)C(C(=O)OC(C)C)=C(C)N1	11.8 µg/mL (≈ 32.6 µM)

Structure (SMILES)	solubility kinetic
CCN(CC)c1ccc(NC(=O)C2CCCC2)cc1	35.4 µg/mL (≈ 136 µM)
CC(=O)C1=C(C)NC(SCC(N)=O)=C(C#N)C1c1ccco1 (stereo not given)	> 47.6 µg/mL
N#Cc1ccc(S(=O)(=O)NC2CC2)cc1	> 33.3 µg/mL
CCC(C)NC(=O)c1ccc2nc(Cc3ccc(OC)cc3)oc2c1 (stereo not given)	4.7 µg/mL (≈ 13.9 µM)
O=C1C2C3C=CC(C4CC34)C2C(=O)N1c1cc(Cl)ccn1 (stereo not given)	42.6 µg/mL (≈ 142 µM)
NC(=O)NC(=O)COC(=O)c1ccc2noc(-c3ccccc3)c2c1	5.2 µg/mL (≈ 15.3 µM)
CCC(Oc1ccccc1)C(=O)NC1CCSC1=O (stereo not given)	> 41.9 µg/mL
Cc1ccc(S(N)(=O)=O)cc1NC(=O)c1ccc2c3c(cccc13)CC2	3.1 µg/mL (≈ 8.46 µM)
CCOC(=O)C(Nc1ccc2ccccc2c1)C(=O)OCC	> 45.2 µg/mL
COc1ccc(Cl)cc1C(=O)NCCCSc1ccccc1	7.8 µg/mL (≈ 23.2 µM)
Cc1ccccc1OC(C)C(=O)NCc1cccnc1 (stereo not given)	38.1 µg/mL (≈ 141 µM)
CCOC(=O)Cc1csc(NC(=O)c2ccc(Cl)s2)n1	13.1 µg/mL (≈ 39.6 µM)
Cc1ccc(C23CC4CC(CC(CN)(C4)C2)C3)cc1.Cl	> 43.8 µg/mL
Cc1noc(C)c1S(=O)(=O)NCc1cccc(Cl)c1	> 45.1 µg/mL
O=C(NCc1ccco1)C1CC(=O)N(c2cccc(Cl)c2)C1 (stereo not given)	39.7 µg/mL (≈ 125 µM)
O=C(CN1C(=O)NC(c2ccccc2)(c2ccccc2)C1=O)Nc1ccc(N2CCOCC2)cc1	2.6 µg/mL (≈ 5.53 µM)
COc1ccc(Cl)cc1NC(=S)NCc1cccnc1	> 46.2 µg/mL
N#CC1C=Cc2ccccc2N1C(=O)c1ccccc1 (stereo not given)	10.3 µg/mL (≈ 39.6 µM)
Cc1cc(C)nc(SCc2ccc(Br)cc2)n1	1.5 µg/mL (≈ 4.85 µM)
O=C(Nc1cccc(F)c1)N1CCCCCC1	> 35.4 µg/mL
Cc1ccc(C(=O)NC(=S)Nc2ccccc2C)cc1	1.4 µg/mL (≈ 4.92 µM)
COc1cc(CCC(=O)N2CC(C)OC(C)C2)cc(OC)c1OC (stereo not given)	> 50.6 µg/mL
COc1ccccc1CNC(=O)CCCNC(=O)c1ccc(Cl)cc1	20.6 µg/mL (≈ 57.1 µM)
COc1ccc(CNC(=O)c2[nH]c(C)c(C(C)=O)c2C)cc1	> 45.1 µg/mL

Structure (SMILES)	solubility kinetic
O=C(COC(=O)c1ccccc1O)NC1CCCc2ccccc21 (stereo not given)	4.6 µg/mL (≈ 14.1 µM)
Cc1cccc(C)c1OCCCCN1CCNCC1.O=C(O)C(=O)O	46 µg/mL
CC(C)C(NC(=O)c1ccccc1NC(=O)C(C)(C)C)C(=O)N1CCOCC1 (stereo not given)	37 µg/mL (≈ 95 µM)
Nc1cccc(-c2cn3cccnc3n2)c1	25.9 µg/mL (≈ 123 µM)
CN(CC(=O)Nc1ccc(SC(F)F)cc1)C1CCCCC1	32.2 µg/mL (≈ 98 µM)
O=C1c2ccccc2C(=O)N1Cc1ccccc1F	1.5 µg/mL (≈ 5.88 µM)
NC(=O)NC(=O)COC(=O)c1ccc(OC(F)F)cc1	9.9 µg/mL (≈ 34.4 µM)
CN1C(c2ccccc2)CC(=NO)CC1c1ccccc1 (stereo not given)	1.4 µg/mL (≈ 4.99 µM)
CCN1CCN(C(=O)NC2CCCCC2)CC1.O=C(O)C(=O)O	> 49.4 µg/mL
CCOC(=O)C1CCN(C(=O)c2cc3ccccc3oc2=O)CC1	48.4 µg/mL (≈ 147 µM)
O=c1[nH]c2ccccc2nc1Cc1ccc([N+](=O)[O-])cc1	3.6 µg/mL (≈ 12.8 µM)
CC1CCN(CC(=O)N2CCc3ccccc32)CC1	36.9 µg/mL (≈ 143 µM)
Brc1ccc(-n2cnc(-c3ccccc3)c2)cc1	1 µg/mL (≈ 3.34 µM)
O=C(Nc1nnc(-c2ccco2)o1)c1ccc(N2C(=O)CCC2=O)cc1	> 52.8 µg/mL
O=C(CN1C(=O)NC2(CCCCC2)C1=O)Nc1ccc(F)cc1	> 47.9 µg/mL
O=C(OCC(=O)N1CCCC1)c1c(Cl)cccc1Cl	39.6 µg/mL (≈ 131 µM)
Cc1c(Cl)cccc1NC(=O)C1COc2ccccc2O1 (stereo not given)	30.6 µg/mL (≈ 101 µM)
O=C(NC1CCCCC1)N1CCN(c2ccc([N+](=O)[O-])cc2)CC1	12.7 µg/mL (≈ 38.2 µM)
O=S(=O)(CCN1CCSCC1)c1ccccc1	34.7 µg/mL (≈ 128 µM)
Cc1cccc(Nc2nc(C)nc3c2oc2ccccc23)c1.Cl	1.1 µg/mL
COc1ccc2c(c1OC)C(=O)N(c1cccc(NC(C)=O)c1)C2	46.6 µg/mL (≈ 143 µM)
CC(Oc1ccc(F)cc1)C(O)CCN(C)C (stereo not given)	25.8 µg/mL (≈ 107 µM)
CCc1ccc(NC(=O)COc2ccc3c(c2)OCO3)cc1	4.8 µg/mL (≈ 16 µM)
O=C(c1ccco1)N1CCN(C(=O)N2CCCC2)CC1	38.7 µg/mL (≈ 140 µM)

Structure (SMILES)	solubility kinetic
COc1ccc(CC(=O)OCC(=O)NC2CC2)cc1	> 39.5 µg/mL
COc1cc(OC)c(S(=O)(=O)NC(C)C)cc1C(=O)O	> 45.5 µg/mL
O=[N+]([O-])c1ccc2nc(-c3cccnc3)[nH]c2c1	> 36 µg/mL
O=C(Nc1ccccc1Br)c1cccc2ccccc12	< 0.7 µg/mL
C#CCSc1nc2sc3c(c2c(=O)n1C)CCC3	< 0.3 µg/mL
N#CC(C#N)=CN=c1ccn(Cc2ccc(Cl)cc2Cl)cc1	1.4 µg/mL (≈ 4.25 µM)
Cc1ccc(N/C=C(\C#N)S(=O)(=O)c2ccccc2)cc1	0.7 µg/mL (≈ 2.35 µM)
Cc1ccsc1C(=O)OCc1nc2ccsc2c(=O)[nH]1	> 46 µg/mL
CC(NC(=O)CCNC(=O)c1ccccc1Cl)c1ccc(-n2ccnc2)cc1 (stereo not given)	> 59.5 µg/mL
Fc1ccccc1-c1nc2ncccc2o1	31 µg/mL (≈ 145 µM)
CC1(C)CN=C(N(C(=O)Nc2ccccc2)c2ccccc2F)S1	8.3 µg/mL (≈ 24.2 µM)
Cc1nc2ccc(C(=O)Nc3ccccc3Cl)cc2s1	14.2 µg/mL (≈ 46.9 µM)
CC1CCCN(CC(=O)NC(=O)NC2CCCCC2)C1 (stereo not given)	> 42.2 µg/mL
CC(Sc1nncn1C)C(=O)Nc1ccc(N2CCCCC2)cc1 (stereo not given)	> 51.8 µg/mL
CC(C)(C)c1ccc(C(=O)O/N=C(\N)c2ccccn2)cc1	2.4 µg/mL (≈ 8.07 µM)
CCOC(=O)C(=O)c1c(-c2ccccc2)nc2ccccn12	33.7 µg/mL (≈ 115 µM)
Cc1ccc(S(=O)(=O)CCC(=O)Nc2ccccc2C)cc1	21.9 µg/mL (≈ 69 µM)
C=CCn1c(=O)c2ccccc2n2c(SCC(=O)NC(C)C)nnc12	> 53.6 µg/mL
Cc1noc(C)c1COC(=O)c1cc(S(=O)(=O)N2CCOCC2)ccc1Cl	42.4 µg/mL (≈ 102 µM)
Cc1cc(C)c2ccc(Cl)cc2n1	1.5 µg/mL (≈ 7.83 µM)
O=C(O)c1cc(S(=O)(=O)N2CCN(S(=O)(=O)c3ccc4ccccc4c3)CC2)ccc1Br	77 µg/mL (≈ 143 µM)
O=C(NCCc1ccc(F)cc1)C1CCCO1 (stereo not given)	27.6 µg/mL (≈ 116 µM)
CC(C)[C@H](NC(=O)c1ccccc1Cl)C(=O)OCC(=O)NCc1ccc2c(c1)OCO2	> 67 µg/mL
O=C1CC(C(=O)N2CCCc3ccccc32)CN1c1ccc(Cl)cc1 (stereo not given)	46.2 µg/mL (≈ 130 µM)

Structure (SMILES)	solubility kinetic
O=C(COC(=O)c1ccc2ccccc2n1)NC1CCCCC1	8.5 µg/mL (≈ 27.2 µM)
COc1ccccc1/C=C/C(=O)OC(C)CN1CCCCC1.Cl (stereo not given)	> 51 µg/mL
CCN1CCN(c2oc(-c3ccco3)nc2C#N)CC1	35.9 µg/mL (≈ 132 µM)
COc1ccc(CCCc2n[nH]c(=S)o2)cc1C	> 39.7 µg/mL
Cc1onc(-c2ccccc2)c1C(=O)N1CCCCCC1	> 42.7 µg/mL
COc1ccc(CNC(=O)c2cc(=O)c3c(C)cc(C)cc3o2)cc1	< 0.7 µg/mL
CCCN1CCN(S(=O)(=O)c2ccc3c(c2)OCCO3)CC1	> 49 µg/mL
Cn1ccnc1SCC(=O)c1ccc(OC(F)F)cc1	> 44.7 µg/mL
Cc1cc(/C(N)=N/OC(=O)c2cccc(Cl)c2)no1	2.2 µg/mL (≈ 7.87 µM)
CC1CCCN(C(=O)COC(=O)Cc2c[nH]c3ccccc23)C1 (stereo not given)	> 47.2 µg/mL
COc1ccccc1N1CCN(C(=O)c2c(-c3c(F)cccc3Cl)noc2C)CC1	52.9 µg/mL (≈ 123 µM)
NS(=O)(=O)c1ccc(CCNC(=O)CN2CCCCCC2)cc1	> 50.9 µg/mL
Cc1ncc(CN2CCN(C3CCCC3)C(CCO)C2)s1 (stereo not given)	36 µg/mL (≈ 116 µM)
O=C(COC(=O)c1ccc2ccccc2c1O)Nc1ccccc1	2.3 µg/mL (≈ 7.16 µM)
O=C(Cc1ccc(Br)cc1)NCCCn1ccnc1	> 48.3 µg/mL
CCOC(=O)C1=NNC2(CC(=O)N(c3cccc(C)c3)C2=O)C1 (stereo not given)	> 47.3 µg/mL
Cc1nn(CC(=O)OCC(=O)Nc2cccc(S(N)(=O)=O)c2)c(C)c1[N+](=O)[O-]	> 61.7 µg/mL
N#Cc1c(-c2cccnc2)c2c([nH]c1=O)-c1ccccc1OC2	> 45.2 µg/mL
Cc1ccccc1Nc1c([N+](=O)[O-])ccc2nonc12	0.2 µg/mL (≈ 0.74 µM)
Cc1cccc(C)c1NC(=O)CNC(=O)Cc1ccccc1[N+](=O)[O-]	18.2 µg/mL (≈ 53.3 µM)
CCc1cc2c(=O)oc(-c3ccccc3F)nc2s1	0.7 µg/mL (≈ 2.54 µM)
Cn1cccc1C(=O)Nc1ccc(N2CCOCC2)cc1	> 42.8 µg/mL
COc1ccc(CSC2=CS(=O)(=O)c3ccccc3N2)cc1	9.8 µg/mL (≈ 29.4 µM)
O=C(NCc1ccccc1)C(=O)Nc1nc(-c2ccccc2)cs1	< 0.2 µg/mL
